Assay results taken from patent publication US9873693B2 (Sunesis Pharmaceuticals, Inc., priority 2006, dated 2018).
pEC50, pIC50: −log10 of the molar value. Where two headings read alike, the source gives them in different places.

Assays:
[1] = molecular target: phosphorylated PDK1 (Homo sapiens (Human), UniProt O15530); assay: PDK1 kinase assay (coupled PDK1/AKT/FAM-crosstide, IMAP); assay type: biochemical; conditions: 0.5 nM phosphorylated PDK1, 24 μM ATP; read-out: Inhibition of phospo-PDK1 in vitro IC50
[2] = tested on: phospho-akt (Thr308); assay: phospho-akt (Thr308) MSD ELISA in PC-3 cells; assay type: cell-based; conditions: Homo sapiens, PC-3 cells; for pEC50 / EC50: PC-3, 2 h, 2 hours, no serum; for pEC50: read-out: Inhibition of P308 Akt in cells using MSD EC50; for EC50: read-out: Reduction of Cellular Levels of Akt p308 By MSD ELISA (EC50 μM); for inhibition at 1 µM / inhibition at 10 µM: read-out: Percent Inhibition of phospho-Akt (308) By MSD ELISA
Procedure, shortened: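 Read-out is MSD electrochemiluminescence after lysate capture overnight at 4 degrees and 1 hr RT detection-antibody step. Before lysis, overnight-plated PC-3 cells received three-fold serial dilutions of inhibitor in serum-free medium, with DMSO-only high controls.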

[3] = tested on: Phospho-T308 Akt; assay: Phospho-T308 Akt detection using immunoblot (western blot) in PC-3 cells; assay type: cell-based; conditions: for Reduction of Cellular Levels of Akt p308 By Western: 2 hour incubation, concentration not given in Table 2
Description: A Phospho-T308 Akt detection using immunoblot (western blot) analysis was performed as described below.
PC-3 prostate cells were plated in a 6 well plate in F12K media (Invitrogen, Carlsbad, Calif.) plus 10% FBS (Invitrogen) and placed in incubator overnight. The stock of compound A was a 50 mM solution in DMSO. 1000× dilutions of the compound were made in DMSO. The 1000× dilutions include, 35 mM, 25 mM, 15 mM, 10 mM, 7 mM, 5 mM, and 1 mM. 1 μl of the 1000× dilutions was added to 1 ml F12K media without serum for final concentrations of […]. 1 μl of DMSO was added to 1 ml media with no serum for a control. The 1 ml DMSO or compound plus media was then added to the cells. Following a 2 hour incubation at 37° C., cells were harvested and washed in PBS and subjected to centrifugation at 3,300 rpm for 5 minutes. Cells were lysed in 100 μl of Bio Rad Bioplex buffer containing protease inhibitors (BioRad, Hercules, Calif.) for 30 minutes on ice followed by centrifugation at 13,000 rpm for 5 minutes. The protein content of the supernatant was assayed using DC Protein Assay (BioRad). 25 μl of protein was added to 4× sample buffer (Invitrogen) and sample reducer (Invitrogen) and run on a 4-12% NuPage gel (Invitrogen). Proteins were then transferred to nitrocellulose (Invitrogen). The membrane was blocked in Tris-buffered saline (Sigma, St. Louis, Mo.) plus 0.1% Tween (Sigma) (T-TBS) plus 5% blotting grade milk (BioRad) for 60 minutes. Membranes were then incubated in T-TBS plus 5% BSA (Sigma) plus 1:1000 of anti-phospho akt (Thr 308) (Cell Signaling Technology, Beverly, Mass.) overnight at 4° C. Membranes were washed in T-TBS then incubated in 1:2000 of anti-rabbit-HRP (Cell Signaling) in TTBS plus 5% milk. Membranes were washed again and proteins were visualized with Super Signal West Pico (Pierce, Rockford, Ill.) and using Kodak BioMax MR film (Kodak, Rochester, N.Y.).
Phospho-akt 308 protein bands on the film were quantified using densitometry. An Alpha Imager (Alpha Innotech Corp, San Leandro, Calif.) using AlphaEase FC software version 4.1.0 (Alpha Innotech Corp.) was used to quantitate protein bands. Briefly, a rectangle of equal size was placed around each protein band as well as a background spot on the film. The densitometry values (IDV=Integrated Density Value) obtained for the background spot was then subtracted from the values obtained for the protein bands. These values were used to obtain an EC50 value using non-linear regression analysis in GraphPad Prism Version 4.00 (Graph Pad Prism, San Diego, Calif.). Percent decrease in expression of phosphoh-akt 308 were also measured specifically at 2 μM and 5 μM levels of inhibitor.

[4] = molecular target: dephosphorylated PDK1 (Homo sapiens (Human), UniProt O15530); assay: PDK1 kinase assay (coupled PDK1/AKT/FAM-crosstide, IMAP); assay type: biochemical; conditions: 25 nM un-phosphorylated PDK1, 24 μM ATP; read-out: Inhibition of dephospo-PDK1 in vitro IC50
Procedure, shortened: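 The FAM-crosstide phosphorylation readout was IMAP polarization (ex 485/em 530 nm, 2 h binding), with 4-parameter fits of ΔmP data. The reaction ran 30 min at 25 °C with 24 μM ATP, and contained 25 nM phosphatase-treated PDK1 (aa 51–360) plus 30 nM unphosphorylated AKT2-PIFtide and 100 nM substrate. Buffer was 10 mM Tris pH 7.2, 10 mM MgCl2, 0.01% Triton X-100 and 1 mM DTT.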

[5] = Homo sapiens, read-out: Percent Inhibition of phospho-Akt (308) By Western

Sequence of phosphorylated PDK1 (O15530 51-360): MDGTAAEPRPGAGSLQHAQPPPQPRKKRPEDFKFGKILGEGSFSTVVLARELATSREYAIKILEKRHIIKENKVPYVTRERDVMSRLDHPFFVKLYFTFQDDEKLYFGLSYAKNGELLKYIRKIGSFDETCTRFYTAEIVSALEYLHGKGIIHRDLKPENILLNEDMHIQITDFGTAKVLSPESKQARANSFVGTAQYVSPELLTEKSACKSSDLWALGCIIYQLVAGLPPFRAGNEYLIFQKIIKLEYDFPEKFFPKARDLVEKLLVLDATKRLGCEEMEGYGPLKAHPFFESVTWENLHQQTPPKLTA
Sequence of dephosphorylated PDK1 (O15530 51-360): as above

Row | SMILES | pIC50 [1] | pEC50 [2] | EC50 [2] [µM] | inhibition at 1 µM [2] [%] | inhibition at 10 µM [2] [%] | Reduction of Cellular Levels of Akt p308 By Western [3] | inhibition at 5 µM [3, 5] [%] | pIC50 [4] | inhibition at 2 µM ([3]; Homo sapiens, at 2 μM, read-out: Percent Inhibition of phospho-Akt (308) By Western) [%]
1 | C=CCOC(=O)C[C@@H](NC(=O)c1cccn(Cc2ccc(F)c(F)c2)c1=O)c1ncc(-c2c[nH]c3ncccc23)o1 [Cpd 301] | > 6.30 | 5.30 to 6.00 | 1 to 5 | 25 to 75 | 25 to 75 | bbb (inhibition of more than 75%) | > 75 | > 6.30 | 
2 | O=C(NCc1noc(-c2c[nH]c3ncccc23)n1)c1cc(Cl)cn(Cc2ccc(Cl)cc2)c1=O [Cpd 309] | > 6.30 | 5.30 to 6.00 |  | 25 to 75 | > 75 | bb (inhibition of from 25% to 75%) | 25 to 75 | > 6.30 | 
3 | O=C(NCc1ccc(-c2c[nH]c3nccnc23)s1)c1cccn(Cc2ccc(F)c(F)c2)c1=O [Cpd 14] | > 6.30 |  |  | 25 to 75 | 25 to 75 | bb (inhibition of from 25% to 75%) |  | > 6.30 | 25 to 75
4 | O=C(NCc1cccc(-c2ccc3n[nH]c(=O)n3c2)c1)c1cccn(Cc2ccc(F)c(F)c2)c1=O [Cpd 216] | 5.00 to 6.30 |  |  |  |  | bb (inhibition of from 25% to 75%) | 25 to 75 | > 6.30 | 
5 | NC[C@@H](NC(=O)c1cccn(Cc2ccc(F)c(F)c2)c1=O)c1nnc(-c2c[nH]c3ncccc23)o1 [Cpd 283] | > 6.30 | 5.30 to 6.00 | 1 to 5 |  |  | bb (inhibition of from 25% to 75%) | 25 to 75 | > 6.30 | 
6 | CC(C)(C)OC(=O)NC[C@@H](NC(=O)c1cccn(Cc2ccc(F)c(F)c2)c1=O)c1nc(-c2c[nH]c3ncccc23)cs1 [Cpd 295] | > 6.30 | 5.30 to 6.00 |  | < 25 | > 75 | bb (inhibition of from 25% to 75%) | 25 to 75 | > 6.30 | 
7 | O=C(NCc1noc(-c2c[nH]c3ncccc23)n1)c1cccn(Cc2ccc(Cl)c(F)c2)c1=O [Cpd 304] | > 6.30 | 5.30 to 6.00 |  | < 25 | > 75 | bbb (inhibition of more than 75%) | > 75 | > 6.30 | 
8 | NC(=O)C[C@@H](NC(=O)c1cccn(Cc2ccc(F)c(F)c2)c1=O)c1nnc(-c2c[nH]c3ncccc23)o1 [Cpd 289] |  |  |  | < 25 | < 25 | b (inhibition of less 25%) | < 25 | > 6.30 | 
9 | O=C(NCc1noc(-c2c[nH]c3ncccc23)n1)c1cccn(Cc2cccc(F)c2)c1=O [Cpd 302] | > 6.30 |  |  | < 25 | 25 to 75 | bbb (inhibition of more than 75%) | > 75 | > 6.30 | 
10 | O=C(O)CC[C@@H](NC(=O)c1cccn(Cc2ccc(F)c(F)c2)c1=O)c1nc(-c2c[nH]c3ncccc23)co1 [Cpd 307] | > 6.30 |  |  | < 25 | < 25 | b (inhibition of less 25%) | < 25 | > 6.30 | 
